From patent US10472381B2, “Sialic acid derivatives” (Reinhard Brossmer, priority 2014, dated 2019) come the findings set out here.

This test has as its target T1, CD22 (Homo sapiens, UniProt P20273).
T1 construct: The soluble CD22 protein was expressed in the CHO-Lec1 cell line; made in house; host or cells: CHO-Lec1
T1 sequence (P20273 20-687 limits assumed): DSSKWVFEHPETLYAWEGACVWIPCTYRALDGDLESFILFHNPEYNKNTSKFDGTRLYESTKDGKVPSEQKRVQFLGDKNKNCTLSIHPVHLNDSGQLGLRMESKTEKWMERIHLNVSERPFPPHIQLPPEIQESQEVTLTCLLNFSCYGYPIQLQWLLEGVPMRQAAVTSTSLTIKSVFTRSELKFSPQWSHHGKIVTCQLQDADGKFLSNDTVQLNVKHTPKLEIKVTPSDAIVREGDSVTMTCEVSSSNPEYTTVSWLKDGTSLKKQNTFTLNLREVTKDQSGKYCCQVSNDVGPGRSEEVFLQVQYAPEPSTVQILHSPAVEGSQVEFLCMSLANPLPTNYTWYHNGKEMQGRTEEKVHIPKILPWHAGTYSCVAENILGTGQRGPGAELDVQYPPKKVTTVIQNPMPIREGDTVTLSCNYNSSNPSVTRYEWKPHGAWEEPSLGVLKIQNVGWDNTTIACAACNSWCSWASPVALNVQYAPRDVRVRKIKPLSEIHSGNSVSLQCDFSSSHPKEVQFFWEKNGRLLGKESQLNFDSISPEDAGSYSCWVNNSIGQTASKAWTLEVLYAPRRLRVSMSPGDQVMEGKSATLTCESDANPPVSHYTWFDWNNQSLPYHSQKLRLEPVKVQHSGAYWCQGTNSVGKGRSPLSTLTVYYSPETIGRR
The test is described as follows: ELISA-based inhibition assay: inhibition of binding of soluble CD22 to immobilized IgM. As for the experimental part: The biological activity of the substances was determined in an ELISA-based inhibition assay as described in “Eur. J. Immunol. 2012, 42, 2792-2802”. The sialic acid derivatives of the formula (I) inhibit the binding of soluble CD22 to immobilized IgM in proportion to their affinity for CD22. The soluble CD22 protein was expressed in the CHO-Lec1 cell line and isolated as described by “Eur. J. Immunol. 2012, 42, 2792-2802”. […] The increase in affinity is reported as rIP (relative inhibitory affinity).
On the technique in general: An ELISA detects its analyte on a solid surface through an enzyme-linked reagent.

The mark [1] stands for this setting: Table III, relative to reference compound 17 co-tested in the same assay (rIP = 1).
Where [2] appears, read: Table IV, relative to reference compound 66 co-tested in the same assay (rIP = 1).

Regarding `CC(=O)N[C@H]1[C@H]([C@H](O)[C@H](O)CNC(=O)c2ccc(-c3ccccc3)cc2)O[C@@](OCCCCCC(=O)[O-])(C(=O)[O-])C[C@@H]1NC(=O)c1ccc(O)cc1.[Na+].[Na+]` [Compound 62], under setting [1], the rIP turned out to be 1.7.

For the compound `COc1ccc(C(=O)N[C@H]2C[C@](OCCCCCC(=O)[O-])(C(=O)[O-])O[C@@H]([C@H](O)[C@H](O)CNC(=O)c3ccc(-c4ccccc4)cc3)[C@@H]2NC(C)=O)cc1.[Na+].[Na+]` [Compound 63], the rIP under setting [1] was 0.27.

`CC(=O)N[C@H]1[C@H]([C@H](O)[C@H](O)CNC(=O)c2ccc(-c3ccccc3)cc2)O[C@@](OCCCCCC(=O)[O-])(C(=O)[O-])C[C@@H]1NC(=O)c1ccc(C(F)(F)F)cc1.[Na+].[Na+]` [Compound 64] returned a rIP under setting [1] of 1.2.

The compound `CC(=O)N[C@@H]1[C@@H](NS(=O)(=O)c2cccc3c(N(C)C)cccc23)[C@H](O)[C@](OCCCCCC(=O)[O-])(C(=O)[O-])O[C@H]1[C@H](O)[C@H](O)CNC(=O)c1ccc(-c2ccccc2)cc1.[Na+].[Na+]` [Compound 65] had a rIP (Table II, relative to reference compound 10 co-tested in the same assay (rIP = 1)) of 0.17.

For `CC(=O)N[C@H]1[C@H]([C@H](O)[C@H](O)CNC(=O)c2ccc(-c3ccccc3)cc2)O[C@@](OCCCCCC(=O)[O-])(C(=O)[O-])C[C@@H]1NC(=O)OCc1ccccc1.[Na+].[Na+]` [Compound 66], the rIP reads like this: under setting [1], 1.3; under setting [2], 1.

`CC(=O)N[C@H]1[C@H]([C@H](O)[C@H](O)CNC(=O)c2ccc(-c3ccc(O)cc3)cc2)O[C@@](OCCCCCC(=O)[O-])(C(=O)[O-])C[C@@H]1NC(=O)OCc1ccccc1.[Na+].[Na+]` [Compound 67] registered a rIP under setting [2] of 1.0.

Under setting [2], `CC(=O)N[C@H]1[C@H]([C@H](O)[C@H](O)CNC(=O)c2ccc(-c3ccccc3F)cc2)O[C@@](OCCCCCC(=O)[O-])(C(=O)[O-])C[C@@H]1NC(=O)OCc1ccccc1.[Na+].[Na+]` [Compound 68] yielded a rIP of 0.76.

`COc1ccccc1-c1ccc(C(=O)NC[C@@H](O)[C@@H](O)[C@@H]2O[C@@](OCCCCCC(=O)[O-])(C(=O)[O-])C[C@H](NC(=O)OCc3ccccc3)[C@H]2NC(C)=O)cc1.[Na+].[Na+]` [Compound 69] showed a rIP under setting [2] of 0.83.

With `CC(=O)N[C@H]1[C@H]([C@H](O)[C@H](O)CNC(=O)c2ccc(-c3cccs3)cc2)O[C@@](OCCCCCC(=O)[O-])(C(=O)[O-])C[C@@H]1NC(=O)OCc1ccccc1.[Na+].[Na+]` [Compound 70], under setting [2], the rIP is reported as 0.88.

Turning to `CC(=O)N[C@H]1[C@H]([C@H](O)[C@H](O)CNC(=O)c2ccc(-c3cccs3)s2)O[C@@](OCCCCCC(=O)[O-])(C(=O)[O-])C[C@@H]1NC(=O)OCc1ccccc1.[Na+].[Na+]` [Compound 71], the rIP under setting [2] came to 0.28.

Compound `CC(=O)N[C@H]1[C@H]([C@H](O)[C@H](O)CNC(=O)Cc2ccc3ccccc3c2)O[C@@](OCCCCCC(=O)[O-])(C(=O)[O-])C[C@@H]1NC(=O)OCc1ccccc1.[Na+].[Na+]` [Compound 72] returned a rIP under setting [2] of 0.91.

`CC(=O)N[C@H]1[C@H]([C@H](O)[C@H](O)CNC(=O)c2cnc(-c3ccccc3)nc2)O[C@@](OCCCCCC(=O)[O-])(C(=O)[O-])C[C@@H]1NC(=O)OCc1ccccc1.[Na+].[Na+]` [Compound 73] came in with a rIP under setting [2] of 0.23.

`CC(=O)N[C@H]1[C@H]([C@H](O)[C@H](O)CNC(=O)c2ccc(-c3ccccc3)nc2)O[C@@](OCCCCCC(=O)[O-])(C(=O)[O-])C[C@@H]1NC(=O)OCc1ccccc1.[Na+].[Na+]` [Compound 74] had a rIP under setting [2] of 0.20.

Under setting [2], `CC(=O)N[C@H]1[C@H]([C@H](O)[C@H](O)CNC(=O)c2ccc(Oc3ccccc3)cc2)O[C@@](OCCCCCC(=O)[O-])(C(=O)[O-])C[C@@H]1NC(=O)OCc1ccccc1.[Na+].[Na+]` [Compound 75] displayed a rIP of 0.25.

For `CC(=O)N[C@H]1[C@H]([C@H](O)[C@H](O)CNC(=O)c2cccc3ccccc23)O[C@@](OCCCCCC(=O)[O-])(C(=O)[O-])C[C@@H]1NC(=O)OCc1ccccc1.[Na+].[Na+]` [Compound 76], under setting [2], the rIP turned out to be 0.35.
